“Also recorded” adds a separate entry of the source. Structures can show the parent of a compound that is named as a salt.
How the values were obtained:
[1] = tested on: Ect cells; assay: Cytokine release in transwells (FlowCytomix bead assay); type: cell-based, human; settings: for IL-6 secretion induced by TLR3 agonist PIC / IL-8 secretion induced by TLR3 agonist PIC / IL-1RA production: 0.3% acid pH 3.9 or media acidified to pH 3.9 with HCl; for IL-1RA production: absence or presence of PIC
Method: (§1) Cytokines were measured using FlowCytomix assays, utilising the basic reagents kit, in conjunction with simplex kits for IL-6, IL-8 and IL-1RA (eBiosciences).
(§2) Test Procedure • 1. Calculate required volumes of reagents and make standards, bead mixtures and biotin-conjugate as described above. • 2. Add 15 μL of either standard, sample or blank (1× assay buffer) to appropriately labelled tubes. • 3. Add 15 μL of prepared bead mixture to each tube. • 4. Add 30 μL of biotin-conjugate mix to each tube, mix tubes well and incubate at room temp for 2 hours. Protect samples from light with foil. • 5. Prepare Streptavidin-PE mix. • 6. Add 0.6 ml 1× assay buffer to each tube and centrifuge at 200 g for 5 min. • 7. Discard s/n, leaving approx. 100 μL. Repeat for a total of 2 washes. • 8. Add 30 μL of Streptavidin-PE mix to all tubes, mix well and incubate at room temp for 1 hour (protected from light). • 9. Add 0.6 ml 1× assay buffer to each tube and centrifuge at 200 g for 5 min. • 10. Discard s/n, leaving approx. 100 μL. Repeat for a total of 2 washes. • 11. Discard s/n from final wash, leaving 100-200 μL of buffer. Analyse samples on the flow cytometer within 24 hours (preferable the same day as the experiment).
(§3) The following concentrations of TLR agonists (Table 3.) have been used to activate FGT cells either alone of added with LA-containing media for 18-24 hours.

[2] = tested on: vaginal (VK2) epithelial cells
[3] = tested on: endocervical (End) epithelial cells
[4] = tested on: ectocervical (Ect) epithelial cells
[5] = tested on: epithelial cells from the lower female reproductive tract; assay: Cytotoxicity in a standard plate format; type: cell-based, human; settings: 0.4% L-lactic acid, standard plate format (data not shown)
[6] = tested on: End cells; assay: Cytokine release in transwells (FlowCytomix bead assay); type: cell-based, human
Method: (§4) An analysis was performed to determine if physiologic noncytotoxic concentrations of L-LA alter the release of immune modulators by VK2, End and Ect cells by incubating cells in transwells with L-LA for 24 h at 37° C. in serum free keratinocyte medium and harvesting supernatants (from the apical chamber) for release of immune modulators.
as §1, §2, §3

[7] = tested on: VK2 cells; assay: as above; type: cell-based, human
Method: as §4, §1, §2, §3

[8] = tested on: Ect cells; assay: as above; type: cell-based, human; settings: 0.3%
[9] = tested on: human female reproductive tissue; settings: low pH; cited from earlier work
[10] = tested on: Ect1 E6/E7 ectocervical epithelial cell line; assay: Cyto/chemokine analysis (Procartaplex, Luminex) after 1 hour treatment; type: cell-based, human; settings: Ect; for IL-1RA production from cells stimulated with PIC, acid alone / PIC-induced cytokine production, acid alone: 0.03% benzoic acid or 0.15% citric acid; for PIC-induced cytokine production, acid alone: compared with low pH alone (HCl); for LA-induced production of IL-1RA in the presence of the acid: 0.3% LA with 0.03% benzoic acid or 0.15% citric acid; for IL-1RA production, no TLR agonist / IL-6 basal production, no TLR agonist: 1 hour treatment at pH 3.9 (acids at various concentrations, gels diluted to about 0.3% LA), supernatant after 18 hours; for other immune mediators (IL-8, MIP3α, TNF, IL-1B, RANTES), no TLR agonist: 1 hour treatment at pH 3.9, not shown; for LA inhibition of PIC-induced IL-8, IL-6 and TNF in the presence of the acid: PIC and 0.3% LA with 0.03% benzoic acid or 0.15% citric acid
[11] = tested on: primary ectocervical cells; assay: Cytokine/chemokine production by primary cells in transwells; type: cell-based, human; settings: 0.3% LA, PIC or both
Description: Culture of Human Primary Ectocervical Cells in Transwells. To further qualify the data in Example 9, we repeated the experiment with primary ectocervical cells.

[12] = tested on: Ect1 E6/E7 ectocervical epithelial cell line; assay: Viability (MTS) 18 hours after 1 hour treatment; settings: range of concentrations, pH 3.9, 1 hour incubation, read 18 hours later
Method: The human ectocervical epithelial cell line Ect1 E6/E7 was utilized for these experiments. Cells were cultured and treated in serum free keratinocyte media (SFKM) containing supplements as per ATCC recommendations. Cells were seeded in 6 mm transwell inserts at a density of 100,000 cells per well, and cultured for 7 days prior to treatment. […] Cytokine-containing supernatants were collected and stored at −80° C. for future analysis and cell viability assessed via MTS assay as per manufacturer's recommendations.
NOTE: The pH of all treatment media containing gels/acids was adjusted to pH 3.9 (to match that of 0.3% LA) prior to treatment. This was performed to ensure that a similar concentration of protonated LA, the active form of LA, was compared. A pH control (media adjusted to pH 3.9 with HCl) was included to determine the effect of low pH alone.
Due to the poor buffering capacity of HCl, treatments containing HCl were refreshed every 20 min during the 1 hour treatment time to ensure the low pH of the treatment media was maintained.

[13] = 0.3% acid (pH 3.9) or low pH alone (pH 3.9 with HCl)
[14] = added to the apical medium in the transwell system, 24 hr
[15] = 0.3% in apical medium, pH 3.9, 24 h
[16] = 0.3%, pH 3.9, absence or presence of PIC
[17] = PIC 1 hour with 0.3% LA or gels diluted to about 0.3% LA, pH 3.9

With `C[C@@H](O)C(=O)O` [D-LA, D-(−)-lactic acid] the “IL-6 secretion induced by TLR3 agonist PIC” value (from here on “IL-6 secretion induced”) [1] was “reduce secretion”, the “IL-8 secretion induced by TLR3 agonist PIC” value (“IL-8 secretion induced” for short) [1] was “reduce secretion” and the IL-1RA production [1] was “increase IL-1RA production”.
For `Cl` [HCl, Hydrochloric acid, reference compound], the “effect on cell viability” value [2, 13] was “non-toxic”, the “IL-6 secretion induced” value [1] was “neither neutralised L-LA nor HCl acidified media had any significant effect” and the “IL-8 secretion induced” value [1] was “neither neutralised L-LA nor HCl acidified media had any significant effect”. The IL-1RA production [1] was “neither neutralised L-LA nor HCl acidified media had any significant effect”, the “effect on cell viability” value [3, 13] was “non-toxic” and the “effect on cell viability” value [4, 13] was “non-toxic”.
For `C[C@H](O)C(=O)O` [L-LA, L-(+)-lactic acid], the “L-lactic acid concentrations tolerated” value [2, 14] was “up to 0.4%”, the “cytotoxicity in standard plate format” value [5] was “highly cytotoxic” and the “IL-6 secretion induced” value [1] was “reduce secretion; also recorded: reduced the production”. The “IL-8 secretion induced” value [1] was “reduce secretion; also recorded: reduced the production”, the IL-1RA production [1] was “induces IL-1RA production; also recorded: increase IL-1RA production; also recorded: significant increase” and the “decreasing levels of proinflammatory cytokines (IL-6, IL-8) induced by PIC, neutralised” value ([1]; 0.3% at pH 7.4) was “neither neutralised L-LA nor HCl acidified media had any significant effect”. The “increasing the production of IL-1RA, neutralised” value ([1]; 0.3% at pH 7.4) was “neither neutralised L-LA nor HCl acidified media had any significant effect”, the “treatment time sufficient for the effects on IL-1RA, IL-6, IL-8, TNFα, RANTES and MIP3α” value ([1]; 0.3% with or without PIC for 0.5, 1 or 18 hrs, cytokines measured at 18 hrs) was 30 min and the “IL-1RA production with Pam3Ck (TLR2) and lipopolysaccharide (TLR4)” value (“IL-1RA production with Pam3Ck” for short) ([1]; 0.3%, pH 3.9) was “same result”. The “IL-6 secretion induced” value [6, 15] was “reduces secretion”, the “IL-8 secretion induced” value [6, 15] was “reduces secretion” and the “IL-1RA production with Pam3Ck” value ([6]; 0.3%, pH 3.9) was “same result”. For the same compound, the IL-1RA production [6, 16] was “induces IL-1RA production”, the “IL-6 secretion induced” value [7, 15] was “reduces secretion” and the “IL-8 secretion induced” value [7, 15] was “reduces secretion”. The “IL-1RA production with Pam3Ck” value ([7]; 0.3%, pH 3.9) was “same result”, the IL-1RA production [7, 16] was “induces IL-1RA production” and the “L-lactic acid concentrations tolerated” value [3, 14] was “up to 0.4%”. The “L-lactic acid concentrations tolerated” value [4, 14] was “up to 0.4%”, the “MIP3α production induced by TLR agonist (PIC)” value [8] was “reduced the production” and the “RANTES production induced by TLR agonist (PIC)” value [8] was “reduced the production”. For the same compound, the “TNFα production induced by TLR agonist (PIC)” value [8] was “reduced the production”.
In the case of `CC(O)C(=O)O` (centres unmarked) [LA, lactic acid], the “inflammatory activity on human female reproductive tissue” value [9] is listed as “pro-inflammatory”, the “IL-1β production, no TLR agonist” value ([10]; 1 hour treatment, levels below the limit of detection (data not shown)) is listed as “small increase” and the “PIC-induced production of IL-6” value [10, 17] is listed as “inhibits”. The “PIC-induced production of IL-8” value [10, 17] was “inhibits”, the “PIC-induced production of TNF” value [10, 17] was “inhibits” and the “production of IL-1RA, IL-6, IL-8, TNFα, RANTES and MIP3α” value [11] was “trend similar to that of LA treatment of cells lines”.
For `O=C(O)c1ccccc1` [benzoic acid, Benzoic acid], the “viability of Ect cells, acid excipients” value [12] was “Neither benzoic nor citric acid had any significant effect”, the “IL-1RA production from cells stimulated with PIC, acid alone” value [10] was “neither citric nor benzoic acid altered” and the “PIC-induced cytokine production, acid alone” value [10] was “did not appear to alter”. The “LA-induced production of IL-1RA in the presence of the acid” value [10] was “largely preserved”, the “IL-1RA production, no TLR agonist” value [10] was “Neither acid was associated with an altered expression” and the “IL-6 basal production, no TLR agonist” value [10] was “Neither acid was associated with an altered expression”. For the same compound, the “other immune mediators (IL-8, MIP3α, TNF, IL-1B, RANTES), no TLR agonist” value [10] was “similarly unaltered” and the “LA inhibition of PIC-induced IL-8, IL-6 and TNF in the presence of the acid” value [10] was “persists”.
With `O=C(O)CC(O)(CC(=O)O)C(=O)O` [citric acid, Citric acid] the “IL-1RA production from cells stimulated with PIC, acid alone” value [10] was “neither citric nor benzoic acid altered”, the “PIC-induced cytokine production, acid alone” value [10] was “did not appear to alter” and the “IL-1RA production, acid in combination with PIC and LA” value ([10]; 0.15% citric acid, compared to cells stimulated with LA and PIC) was “reduced production”. The “LA-induced production of IL-1RA in the presence of the acid” value [10] was “largely preserved”, the “IL-1RA production, no TLR agonist” value [10] was “Neither acid was associated with an altered expression” and the “IL-6 basal production, no TLR agonist” value [10] was “Neither acid was associated with an altered expression”. For the same compound, the “other immune mediators (IL-8, MIP3α, TNF, IL-1B, RANTES), no TLR agonist” value [10] was “similarly unaltered” and the “LA inhibition of PIC-induced IL-8, IL-6 and TNF in the presence of the acid” value [10] was “persists”.

Source: patent publication US9801839B2, “Therapeutic method” (Macfarlane Burnet Institute for Medical Research and Public …, priority 2014, dated 2017)
